According to patent US8236808B2, “Pyrazine derivatives as ENAC blockers” (Novartis AG, priority 2008, dated 2012):
Structures can show the parent of a compound that is named as a salt.

The compounds below were run against T1, epithelial sodium channel (ENaC) (Homo sapiens, UniProt P37088+P51168+P51170) (assay: Short circuit current (ISC) measurements in human bronchial epithelial cells, inhibition of amiloride-sensitive ISC). Settings: inhibition of the amiloride-sensitive ISC; HBECs cultured at air-liquid interface, Ussing chamber, compound added to apical chamber.
T1 construct: host or cells: primary human bronchial epithelial cells (HBECs), differentiated at the air-liquid interface
T1 sequence (P37088 1-669): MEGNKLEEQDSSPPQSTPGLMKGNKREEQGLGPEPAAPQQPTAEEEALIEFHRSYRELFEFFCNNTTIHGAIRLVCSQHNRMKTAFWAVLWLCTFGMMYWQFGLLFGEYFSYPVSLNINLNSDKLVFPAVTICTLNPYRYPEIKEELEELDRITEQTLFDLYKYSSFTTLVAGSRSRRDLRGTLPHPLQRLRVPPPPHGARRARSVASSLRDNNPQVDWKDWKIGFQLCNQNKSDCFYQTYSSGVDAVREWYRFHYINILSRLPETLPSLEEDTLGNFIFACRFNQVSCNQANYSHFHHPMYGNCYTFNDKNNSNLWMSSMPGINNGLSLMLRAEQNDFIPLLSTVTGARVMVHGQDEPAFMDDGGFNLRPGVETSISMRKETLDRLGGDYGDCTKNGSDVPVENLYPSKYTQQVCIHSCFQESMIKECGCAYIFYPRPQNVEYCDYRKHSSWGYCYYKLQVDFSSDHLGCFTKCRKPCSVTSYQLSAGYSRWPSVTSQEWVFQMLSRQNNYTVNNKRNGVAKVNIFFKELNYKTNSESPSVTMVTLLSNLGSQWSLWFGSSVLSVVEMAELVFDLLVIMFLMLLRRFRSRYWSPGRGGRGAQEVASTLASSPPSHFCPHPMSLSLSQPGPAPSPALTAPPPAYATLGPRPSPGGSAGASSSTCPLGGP
T1 sequence (P51168 1-640): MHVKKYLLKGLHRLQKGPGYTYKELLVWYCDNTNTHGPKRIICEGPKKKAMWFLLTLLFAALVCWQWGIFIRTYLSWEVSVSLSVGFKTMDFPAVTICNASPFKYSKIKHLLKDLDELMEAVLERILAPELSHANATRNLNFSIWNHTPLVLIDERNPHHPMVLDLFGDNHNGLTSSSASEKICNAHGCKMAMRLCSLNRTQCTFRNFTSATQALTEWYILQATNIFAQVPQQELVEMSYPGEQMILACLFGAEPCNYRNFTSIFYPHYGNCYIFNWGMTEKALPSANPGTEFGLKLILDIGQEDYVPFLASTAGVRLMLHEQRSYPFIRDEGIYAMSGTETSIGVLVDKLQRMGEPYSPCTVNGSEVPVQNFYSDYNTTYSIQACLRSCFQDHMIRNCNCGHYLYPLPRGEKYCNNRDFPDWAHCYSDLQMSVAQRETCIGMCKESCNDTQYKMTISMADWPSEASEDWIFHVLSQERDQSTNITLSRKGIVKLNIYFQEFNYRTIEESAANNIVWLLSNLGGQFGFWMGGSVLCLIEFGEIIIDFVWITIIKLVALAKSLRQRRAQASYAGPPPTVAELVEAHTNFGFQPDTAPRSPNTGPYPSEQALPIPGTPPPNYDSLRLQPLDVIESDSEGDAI
T1 sequence (P51170 1-649): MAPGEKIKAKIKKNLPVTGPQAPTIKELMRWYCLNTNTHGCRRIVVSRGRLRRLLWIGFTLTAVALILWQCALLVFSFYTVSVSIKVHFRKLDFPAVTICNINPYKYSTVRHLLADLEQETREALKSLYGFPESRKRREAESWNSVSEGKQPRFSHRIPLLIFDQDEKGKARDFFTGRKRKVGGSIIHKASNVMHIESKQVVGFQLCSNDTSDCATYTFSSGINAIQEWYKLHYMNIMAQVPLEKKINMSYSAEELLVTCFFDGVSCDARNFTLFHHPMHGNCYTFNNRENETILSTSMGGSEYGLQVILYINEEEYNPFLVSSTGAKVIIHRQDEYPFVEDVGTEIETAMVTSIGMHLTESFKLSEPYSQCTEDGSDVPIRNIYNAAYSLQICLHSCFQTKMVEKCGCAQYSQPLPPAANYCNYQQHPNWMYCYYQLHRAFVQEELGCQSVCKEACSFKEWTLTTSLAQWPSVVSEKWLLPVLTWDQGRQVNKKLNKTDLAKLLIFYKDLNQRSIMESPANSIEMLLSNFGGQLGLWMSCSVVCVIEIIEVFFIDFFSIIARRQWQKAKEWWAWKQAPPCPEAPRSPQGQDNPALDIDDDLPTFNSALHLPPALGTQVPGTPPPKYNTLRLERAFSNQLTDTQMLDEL
Assay type: cell-based
Description: Compounds of formula (I), hereinafter referred to alternatively as “agents of the invention”, are useful as pharmaceuticals. In particular, the compounds have good ENaC blocker activity and may be tested in the following assays.
Human Bronchial Epithelial cells (HBECs) (Cambrex) were cultured under air-liquid interface conditions to provide a well differentiated mucociliary phenotype.
HBECs were cultured using a modification of the method described by Gray and colleagues (Gray et al., 1996). Cells were seeded in plastic T-162 flasks and were grown in bronchial epithelial cell growth medium (BEGM; Cambrex) supplemented with bovine pituitary extract (52 μg/mL), hydrocortisone (0.5 μg/mL), human recombinant epidermal growth factor (0.5 ng/mL), epinephrine (0.5 μg/mL), transferrin (10 μg/mL), insulin (5 μg/mL), retinoic acid (0.1 μg/mL), triiodothyronine ([…]), gentamycin (50 μg/mL) and amphotericin B (50 ng/mL). Medium was changed every 48 hours until cells were 90% confluent. Cells were then passaged and seeded (8.25×10^5 cells/insert) on polycarbonate Snapwell inserts (Costar) in differentiation media containing 50% DMEM in BEGM with the same supplements as above but without triiodothyronine and a final retinoic acid concentration of 50 nM (all-trans retinoic acid). Cells were maintained submerged for the first 7 days in culture, after which time they were exposed to an apical air interface for the remainder of the culture period. At this time, media was changed to DMEM:F12 media containing 2% v/v Ultroser G for the remainder of culture. Amphotericin B was removed from all media 3 feeds prior to use in the Ussing Chambers. Cells were used between days 7 and 21 after establishment of the apical-air interface. At all stages of culture, cells were maintained at 37° C. in 5% CO2 in an air incubator.
Snapwell inserts were mounted in Vertical Diffusion Chambers (Costar) and were bathed with continuously gassed Ringer solution (5% CO2 in O2; pH 7.4) maintained at 37° C. containing (in mM): 120 NaCl, 25 NaHCO3, 3.3 KH2PO4, 0.8 K2HPO4, 1.2 CaCl2, 1.2 MgCl2, and 10 glucose. The solution osmolarity was between 280 and 300 mOsmol/kg H2O for all physiological salt solutions used. Cells were voltage clamped to 0 mV (model EVC4000; WPI). RT was measured by applying a 1- or 2-mV pulse at 30-s intervals and calculating RT by Ohm's law. Data were recorded using a PowerLab workstation (ADInstruments).
Test compounds were prepared as a 10 mM stock solution in DMSO (95%). Serial 3-fold dilutions were freshly prepared in an appropriate vehicle (distilled H2O or Ringers solution). The initial concentration was added to the apical chamber as a 1000× concentrate in 5 μL, resulting in a final 1× concentration the 5 mL volume of the Ussing chamber. Subsequent additions of compound were added in a 3.3 μL volume of the 1000× serially diluted stock solution. At the completion of the concentration-response experiment, amiloride (10 μM) was added into the apical chamber to enable the total amiloride-sensitive current to be measured. An amiloride control IC50 was established at the start of each experiment.
Results are expressed as the mean % inhibition of the amiloride-sensitive ISC. Concentration-response curves were plotted and IC50 values generated using GraphPad Prism 3.02. Cell inserts were typically run in duplicate and the IC50 calculated on the mean % inhibition data.
An IC50 of 420 nM was found for `C[N+](C)(CCCNC(=O)Cc1ccc(Cl)cc1)CCNC(=O)c1nc(Cl)c(N)nc1N` [Example 51, {3-[2-(4-Chloro-phenyl)-acetylamino]-propyl}-{2-[(3,5-diamino-6-chloro-pyrazine-2-carbonyl)-amino]-ethyl}-dimethyl-ammonium hexafluorophosphate] in this work.
An IC50 of 10 nM was found for `CCC[C@@H](CNC(=O)c1nc(Cl)c(N)nc1N)[N+](C)(C)CCCc1ccc(O)cc1` [Example 121, ((S)-1-{[(3,5-Diamino-6-chloro-pyrazine-2-carbonyl)-amino]-methyl}-butyl)-[3-(4-hydroxy-phenyl)-propyl]-dimethyl-ammonium trifluoroacetate] in this work.
An IC50 of 540 nM was found for `C[N+](C)(CCNC(=O)c1nc(Cl)c(N)nc1N)CCNS(=O)(=O)Cc1ccc(Cl)cc1` [Example 108, [2-(4-Chloro-phenylmethanesulfonylamino)-ethyl]-{2-[(3,5-diamino-6-chloro-pyrazine-2-carbonyl)-amino]-ethyl}-dimethyl-ammonium bromide] in this work.
An IC50 of 34 nM was found for `COc1ccc(CCC[N+](CCCc2ccc(OC)cc2)(CCNC(=O)c2nc(Cl)c(N)nc2N)Cc2ccccc2)cc1` [Example 23, Benzyl-{2-[(3,5-diamino-6-chloro-pyrazine-2-carbonyl)-amino]-ethyl}-bis-[3-(4-methoxy-phenyl)-propyl]-ammonium trifluoroacetate] in this work.
An IC50 of 170 nM was found for `C[N+](C)(C)[C@H](CNC(=O)c1nc(Cl)c(N)nc1N)Cc1ccccc1` [Example 13, {(S)-1-Benzyl-2-[(3,5-diamino-6-chloro-pyrazine-2-carbonyl)-amino]-ethyl}-trimethyl-ammonium iodide] in this work.
An IC50 of 2 nM was found for `COc1ccc(CCC[N+](C)(CCCc2ccc(OC)cc2)CCNC(=O)c2nc(Cl)c(N)nc2N)cc1` [Example 20, {2-[(3,5-diamino-6-chloro-pyrazine-2-carbonyl)-amino]-ethyl}-bis-[3-(4-methoxy-phenyl)-propyl]-methyl-ammonium trifluoroacetate] in this work.
An IC50 of 7.5 nM was found for `C=CC[N+](CCCc1ccc(OC)cc1)(CCCc1ccc(OC)cc1)CCNC(=O)c1nc(Cl)c(N)nc1N` [Example 17, Allyl-{2-[(3,5-diamino-6-chloro-pyrazine-2-carbonyl)-amino]-ethyl}-bis-[3-(4-methoxy-phenyl)-propyl]-ammonium trifluoroacetate] in this work.
An IC50 of 52 nM was found for `C[N+](C)(C)[C@@H](CCCCNC(=O)Cc1ccc(OCc2ccccc2)cc1)CNC(=O)c1nc(Cl)c(N)nc1N` [Example 15, ((S)-5-[2-(4-Benzyloxy-phenyl)-acetylamino]-1-{[(3,5-diamino-6-chloro-pyrazine-2-carbonyl)-amino]-methyl}-pentyl)-trimethyl-ammonium iodide] in this work.
An IC50 of 1140 nM was found for `C[N+](C)(CCNC(=O)c1nc(Cl)c(N)nc1N)CCc1ccccc1` [Example 129, {2-[(3,5-Diamino-6-chloro-pyrazine-2-carbonyl)-amino]-ethyl}-dimethyl-phenethyl-ammonium trifluoroacetate] in this work.
An IC50 of 5810 nM was found for `C[N+](C)(C)CCNC(=O)c1nc(Cl)c(N)nc1N` [Example 130, {2-[(3,5-Diamino-6-chloro-pyrazine-2-carbonyl)-amino]-ethyl}-trimethyl-ammonium iodide] in this work.
An IC50 of 5690 nM was found for `CCC[N+](CCCc1ccc(OC)cc1)(CCCc1ccc(OC)cc1)CCNC(=O)c1nc(Cl)c(N)nc1N` [Example 21, {2-[(3,5-Diamino-6-chloro-pyrazine-2-carbonyl)-amino]-ethyl}-bis-[3-(4-methoxy-phenyl)-propyl]-propyl-ammonium trifluoroacetate] in this work.
An IC50 of 640 nM was found for `C[N+]1(CCNC(=O)c2nc(Cl)c(N)nc2N)CCC(Cc2ccccc2)CC1` (stereo not drawn) [Example 16, 4-Benzyl-1-{2-[(3,5-diamino-6-chloro-pyrazine-2-carbonyl)-amino]-ethyl}-1-methyl-piperidinium iodide] in this work.
An IC50 of 150 nM was found for `C[N+](C)(CCCCNC(=O)CCc1ccc(Cl)cc1)CCNC(=O)c1nc(Cl)c(N)nc1N` [Example 65, {4-[3-(4-Chloro-phenyl)-propionylamino]-butyl}-{2-[(3,5-diamino-6-chloro-pyrazine-2-carbonyl)-amino]-ethyl}-dimethyl-ammonium hexafluorophosphate] in this work.
An IC50 of 20 nM was found for `CCN(CC)CC[N+](CCCc1ccc(OC)cc1)(CCCc1ccc(OC)cc1)CCNC(=O)c1nc(Cl)c(N)nc1N` [Example 19, {2-[(3,5-Diamino-6-chloro-pyrazine-2-carbonyl)-amino]-ethyl}-(2-diethylamino-ethyl)-bis-[3-(4-methoxy-phenyl)-propyl]-ammonium trifluoroacetate] in this work.
An IC50 of 140 nM was found for `C[N+](C)(CCNC(=O)CCc1ccccc1)CCNC(=O)c1nc(Cl)c(N)nc1N` [Example 30, {2-[(3,5-Diamino-6-chloro-pyrazine-2-carbonyl)-amino]-ethyl}-dimethyl-2-[(3-phenyl-propionylamino)-ethyl]-ammonium hexafluorophosphate] in this work.
